# Columns and labels:
# [1] = test system: NF-κB in THP1-Blue NF-κB cells; experiment: NF-κB activity assay (SEAP reporter, LPS-induced); assay type: cell-based; conditions: 20 μM, LPS 10 ng/mL
# Method: THP1-Blue NF-κB cells, NF-κB secreted embryonic alkaline phosphatase (SEAP) reporter monocytes (InvivoGen, USA), were assayed after 20–24 h of incubation following the manufacturer’s protocol. Briefly, cells were seeded at 1 × 10^6 cells/mL in RPMI medium in 96-well plates (180 μL) and treated with complex 3 or 4, Lipopolysaccharide (LPS) (10 ng/mL; […] The next day, NF-κB activation was assessed via the secretion of SEAP. Supernatants (20 μL) were transferred to 96-well plates, and 180 μL of Quanti-Blue was added. Plates were incubated for 2 h at 37°C, and absorbance was measured at 600 nm using an […] 200 PRO microplate reader (TECAN, Switzerland).
# THP1-Blue NF-κB cells = experiment: MTT viability assay of THP1-Blue NF-κB cells; assay type: cell-based; conditions: concentrations of the NF-κB activity assay, overnight
# Method: A total of 20 μL of sterile filtered MTT (Sigma-Aldrich, Merck, Germany) solution (5 mg/mL in PBS) was added to the remaining overnight culture of THP1-Blue NF-κB cells from the above NF-κB activity assay in 96-well plates, which were incubated at 37°C (see above). After 2 h of incubation at 37°C, the supernatant was removed, and the purple formazan product generated in the cells was dissolved by the addition of 100 μL of DMSO to each well. The plates were then gently shaken for 30 s at room temperature to dissolve the precipitates. The absorbance was measured at 570 nm using an […] 200 PRO microplate reader (TECAN, Switzerland) ([43]).
# IKKβ = target: T1, IKKβ (Homo sapiens, UniProt O14920); experiment: IKKβ inhibition assay (IKKβ Kinase Assay Kit); assay type: biochemical; conditions: fivefold higher concentration than 1 μM
# T1 construct: purchased BPS Bioscience
# T1 sequence (O14920 1-756): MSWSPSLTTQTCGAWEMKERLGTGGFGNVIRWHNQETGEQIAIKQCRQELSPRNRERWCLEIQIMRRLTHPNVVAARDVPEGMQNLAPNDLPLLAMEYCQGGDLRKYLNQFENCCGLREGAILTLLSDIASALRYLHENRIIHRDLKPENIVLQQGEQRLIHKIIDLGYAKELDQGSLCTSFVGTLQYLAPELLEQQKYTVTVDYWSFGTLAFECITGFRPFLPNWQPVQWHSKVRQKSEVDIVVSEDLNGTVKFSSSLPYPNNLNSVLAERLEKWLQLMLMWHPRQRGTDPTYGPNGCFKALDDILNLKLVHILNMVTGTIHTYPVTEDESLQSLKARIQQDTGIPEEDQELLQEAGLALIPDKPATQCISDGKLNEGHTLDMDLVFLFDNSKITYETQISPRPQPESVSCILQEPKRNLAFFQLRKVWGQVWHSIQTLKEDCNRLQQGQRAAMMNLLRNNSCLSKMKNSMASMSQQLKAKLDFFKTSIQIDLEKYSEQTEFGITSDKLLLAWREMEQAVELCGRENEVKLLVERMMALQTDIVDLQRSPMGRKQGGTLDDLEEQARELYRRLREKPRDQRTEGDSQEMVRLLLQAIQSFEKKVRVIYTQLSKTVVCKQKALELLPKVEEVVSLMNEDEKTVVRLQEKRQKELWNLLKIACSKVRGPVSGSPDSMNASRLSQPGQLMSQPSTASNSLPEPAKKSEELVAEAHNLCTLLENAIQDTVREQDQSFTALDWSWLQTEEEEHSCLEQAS
# Method: IκB kinase beta (IKKβ) inhibition was determined using the IKKβ Kinase Assay Kit (BPS Bioscience, San Diego, California, USA). […] Kinase-Glo® MAX (Promega, #V6071, Madison, Wisconsin, USA) was used as the detection reagent, with an incubation time of 15 min. Blank values were subtracted from all measurements. Luminescence was measured with an integration time of 1 s using a Spark Microplate Reader (Tecan, Switzerland).
# CAL 27 cell line [2] = test system: CAL 27 cell line; set-up: method as in PMID 32060973, PMID 32099333; conditions: CAL 27 cell line ref 46, 47; cited from earlier work
# SCC-9 cell line [3] = test system: SCC-9 cell line; set-up: method as in PMID 32628350, PMID 25450696; conditions: SCC-9 cell line ref 48, 49; cited from earlier work
# FaDu cell line [4] = test system: FaDu cell line; set-up: method as in PMID 32628350; conditions: FaDu cell line ref 48; cited from earlier work
# Detroit 562 cell line = test system: Detroit 562 cell line; set-up: method as in PMID 32121279, PMID 19317462; conditions: Detroit 562 cell line ref 50, 51; cited from earlier work
# Hep-2 cell line [5] = test system: Hep-2 cell line; set-up: method as in PMID 23513724; conditions: HPV-positive Hep-2 cell line ref 52; cited from earlier work
# KB cell line = test system: KB cell line; set-up: method as in PMID 36278627; conditions: 48 h of treatment ref 53; cited from earlier work
# HGF = test system: HGF; set-up: method as in PMID 34657625; conditions: concentration range 0.1–20 μM ref 54; cited from earlier work
# A549 cell line = test system: A549 cell line; set-up: method as in PMID 32598409; conditions: A549 cell line ref 33; cited from earlier work
# CAL 27 cell line [6] = conditions: cited from earlier work
# CAL 27 cell line [7] = test system: CAL 27 cell line; set-up: method as in PMID 32099333, PMID 25767602; conditions: CAL 27 cell line ref 47, 55; cited from earlier work
# SCC-9 cell line [8] = test system: SCC-9 cell line; set-up: method as in PMID 25450696; conditions: SCC-9 cell line ref 49; cited from earlier work
# FaDu cell line [9] = test system: FaDu cell line; set-up: method as in PMID 25767602; conditions: FaDu cell line ref 55; cited from earlier work
# Hep-2 cell line [10] = conditions: Hep-2 cell line ref 56; cited from earlier work
# OSCC cells = test system: OSCC cells; set-up: method as in PMID 32391111; conditions: Ohnishi et al. ref 57; cited from earlier work
smiles,measurement,setting,value
"COc1cc(/C=C/C(=O)CC(=O)/C=C/c2ccc(O)c(OC)c2)ccc1O [Curcumin, curcumin]",Reduction of LPS-induced NF-κB activation,[1],approximately 60%
same,Cytotoxicity in THP1-Blue NF-κB cells (MTT),THP1-Blue NF-κB cells,"Neither complex 3, complex 4, nor curcumin exhibited significant cytotoxicity"
same,Inhibition of IKKβ activity,IKKβ,approximately 30%
same,IC50,CAL 27 cell line [2],49.9 µM
same,IC50,SCC-9 cell line [3],40.9 µM
same,IC50,FaDu cell line [4],24.8 µM
same,Concentration showing cytotoxicity,Detroit 562 cell line,around 20 μM
same,IC50,Hep-2 cell line [5],~50 µM
same,IC50,KB cell line,8.84 µg/mL
same,Effect on cell viability,HGF,did not significantly affect cell viability
same,IC50,A549 cell line,13.1 µM
same,Concentration reducing cell migratory capacity,"CAL 27 cell line [6]; CAL 27 cell line ref 47, 55",50 µM
same,Concentration significantly inhibiting migration,"CAL 27 cell line [6]; CAL 27 cells, Ma et al. ref 47",100 µM
same,Concentration inhibiting colony formation,CAL 27 cell line [7],≥ 12.5 µM
same,Concentration suppressing colony formation,SCC-9 cell line [8],40 µM
same,Concentration suppressing colony formation,FaDu cell line [9],12.5 µM
same,Concentration with significant inhibition of colony formation and cell migration,Hep-2 cell line [10],20 µM
same,Concentration inhibiting migration,OSCC cells,15 µM
